From patent US6177253A, “Screening methods for the identification of anti-HIV compounds employing a cyclosporine-specific monoclonal antibody that cross-reacts with HIV-1 p24” (priority 1998, dated 2001)

Experiments:
Type in all cases: binding, BALB/c mice
G7 1.1 = experiment: ELISA inhibition by singly modified Cs-derivatives, McAb G7 1.1; details: group I; McAb binds selectively to Thr^2 -Cs-BSA coating
Experimental: (§1) A second ELISA Procedure used conjugates of D-Lys^8 -Cs-BSA and Thr^2 -Cs-BSA for coating (Queeniaux et al., 1987b). An indirect detection system consisting of rabbit anti-mouse Ig followed by alkaline phosphates-conjugated goat anti-rabbit IgG was performed as previously described (Queenlaux et al., 1987b).
(§2) The binding of the 22 McAbs to these two Cs-BSA conjugates was also found to correlate well with their fine specificity patterns, as characterized with a set of 28-36 Cs derivatives. Typical ELISA curves showing McAb binding either to D-Lys^8 -Cs-BSA (panel A) or to Thr^2 -Ca-BSA (panel B) and inhibited by Cs or Cs derivatives are shown in FIGS. 8A-8B, D-Lys^8 -Cs-BSA was subsequently used for coating in the inhibition experiments, except for those McAbs binding selectively to Thr^2 -Cs-BSA (see Table 4 and FIGS. 7A-7C). An example of the binding of 26 Cs derivatives by McAbs belonging to each of the five specificity groups mentioned above is reported in Table 5. The results are expressed as the difference of IC50 (in log10) between the Cs derivatives and Cs. All Cs-derivatives used in this study were selected for having a conserved peptide ring conformation compared with CsA (as determined in NMR or X-ray diffraction).

H4 1.3 = experiment: ELISA inhibition by singly modified Cs-derivatives, McAb H4 1.3; details: group II; D-Lys^8 -Cs-BSA coating
Experimental: as §1, §2

H6 1.5 = experiment: ELISA inhibition by singly modified Cs-derivatives, McAb H6 1.5; details: group III; D-Lys^8 -Cs-BSA coating
Experimental: as §1, §2

B11 1.4 = experiment: ELISA inhibition by singly modified Cs-derivatives, McAb B11 1.4; details: group IV; D-Lys^8 -Cs-BSA coating
Experimental: as §1, §2

C4 2.2 = experiment: ELISA inhibition by singly modified Cs-derivatives, McAb C4 2.2; details: group V; McAb binds selectively to Thr^2 -Cs-BSA coating
Experimental: as §1, §2

Row | SMILES | log10 difference in the concentrations of Cs-derivatives and unmodified Cs required to achieve 50% inhibition in ELISA, McAb G7 1.1 (G7 1.1) [log10] | log10 difference in the concentrations of Cs-derivatives and unmodified Cs required to achieve 50% inhibition in ELISA, McAb H4 1.3 (H4 1.3) [log10] | log10 difference in the concentrations of Cs-derivatives and unmodified Cs required to achieve 50% inhibition in ELISA, McAb H6 1.5 (H6 1.5) [log10] | log10 difference in the concentrations of Cs-derivatives and unmodified Cs required to achieve 50% inhibition in ELISA, McAb B11 1.4 (B11 1.4) [log10] | log10 difference in the concentrations of Cs-derivatives and unmodified Cs required to achieve 50% inhibition in ELISA, McAb C4 2.2 (C4 2.2) [log10]
1 | C/C=C/C[C@@H](C)[C@@H](O)[C@H]1C(=O)N[C@@H](CC)C(=O)N(C)CC(=O)N(C)[C@@H](CC(C)C)C(=O)N[C@@H](C(C)C)C(=O)N(C)[C@@H](CC(C)C)C(=O)N[C@@H](C)C(=O)N[C@H](CCCCNC(=O)OC(C)(C)C)C(=O)N(C)[C@@H](CC(C)C)C(=O)N(C)[C@@H](CC(C)C)C(=O)N(C)[C@@H](C(C)C)C(=O)N1C [D-Ala^8 Boc-D-Lys] | 2.0 | 0.6 | 0.0 | 0.3 | 1.2
2 | C/C=C/C[C@@H](C)[C@@H](O)[C@H]1C(=O)N[C@@H](CC)C(=O)N(C)CC(=O)N(C)[C@@H](CC(C)C)C(=O)N[C@@H](C(C)C)C(=O)N(C)[C@@H](CC(C)C)C(=O)N[C@@H](C)C(=O)N[C@H](C)C(=O)N(C)[C@@H](C)C(=O)N(C)[C@@H](CC(C)C)C(=O)N(C)[C@@H](C(C)C)C(=O)N1C [MeLeu^9 MeAla] | 1.4 | < 0.0 | 0.0 | 1.7 | 1.9
3 | C/C=C/C[C@@H](C)[C@@H](O)[C@H]1C(=O)N[C@@H](CCC)C(=O)N(C)CC(=O)N(C)[C@@H](CC(C)C)C(=O)N[C@@H](CCC)C(=O)N(C)[C@@H](CC(C)C)C(=O)N[C@@H](C)C(=O)N[C@H](C)C(=O)N(C)[C@@H](CC(C)C)C(=O)N(C)[C@@H](CC(C)C)C(=O)N(C)[C@@H](C(C)C)C(=O)N1C [Val^5 NVa^2, Nva^5] | 0.5 | 1.2 | 0.2 | 0.2 | 0.1
4 | C/C=C/C[C@@H](C)[C@@H](O)[C@H]1C(=O)N[C@@H](CC)C(=O)N(C)CC(=O)N(C)[C@@H](Cc2ccccc2)C(=O)N[C@@H](C(C)C)C(=O)N(C)[C@@H](CC(C)C)C(=O)N[C@@H](C)C(=O)N[C@H](C)C(=O)N(C)[C@@H](CC(C)C)C(=O)N(C)[C@@H](CC(C)C)C(=O)N(C)[C@@H](C(C)C)C(=O)N1C [MeLeu^4 MePhe] | < 0.0 | 0.7 | 2.3 | 0.2 | 0.0
5 | C/C=C/C[C@@H](C)[C@@H](O)[C@H]1C(=O)N[C@@H](CC)C(=O)N(C)CC(=O)N(C)[C@@H](C)C(=O)N[C@@H](C(C)C)C(=O)N(C)[C@@H](CC(C)C)C(=O)N[C@@H](C)C(=O)N[C@H](C)C(=O)N(C)[C@@H](CC(C)C)C(=O)N(C)[C@@H](CC(C)C)C(=O)N(C)[C@@H](C(C)C)C(=O)N1C [MeLeu^4 MeAla] | < 0.0 | 1.8 | 1.2 | 0.3 | 0.1
6 | C/C=C/C[C@@H](C)[C@@H](O)[C@H]1C(=O)N[C@@H](CC)C(=O)N(C)CC(=O)N(C)[C@@H](CC(C)C)C(=O)N[C@@H](C(C)C)C(=O)N(C)[C@@H](CC(C)C)C(=O)N[C@@H](C)C(=O)N[C@H](C)C(=O)N(C)[C@@H](Cc2ccccc2)C(=O)N(C)[C@@H](CC(C)C)C(=O)N(C)[C@@H](C(C)C)C(=O)N1C [MeLeu^9 MePhe] | 0.3 | 0.0 | 0.1 | 1.2 | 1.8
7 | C/C=C/C[C@@H](C)[C@@H](O)[C@H]1C(=O)N[C@@H](CC)C(=O)N(C)C(COC(C)=O)C(=O)N(C)[C@@H](CC(C)C)C(=O)N[C@@H](C(C)C)C(=O)N(C)[C@@H](CC(C)C)C(=O)N[C@@H](C)C(=O)N[C@H](C)C(=O)N(C)[C@@H](CC(C)C)C(=O)N(C)[C@@H](CC(C)C)C(=O)N(C)[C@@H](C(C)C)C(=O)N1C (stereo partly shown) [Sar^3 O-Acetyl-MeSer] | 1.2 | 2.1 | 2.2 | 0.4 | 1.5
8 | C/C=C/C[C@@H](C)[C@@H](O)[C@H]1C(=O)N[C@@H](CC)C(=O)N(C)CC(=O)N(C)[C@@H](CC(C)C)C(=O)N(C)[C@@H](CC(C)C)C(=O)N(C)[C@@H](CC(C)C)C(=O)N[C@@H](C)C(=O)N[C@H](C)C(=O)N(C)[C@@H](CC(C)C)C(=O)N(C)[C@@H](CC(C)C)C(=O)N(C)[C@@H](C(C)C)C(=O)N1C [Val^5 MeLeu] | 1.0 | 1.2 | 0.3 | 0.0 | < 0.0
9 | C/C=C/C[C@@H](C)[C@@H](O)[C@H]1C(=O)N[C@@H](CO)C(=O)N(C)CC(=O)N(C)[C@@H](CC(C)C)C(=O)N[C@@H](C(C)C)C(=O)N(C)[C@@H](CC(C)C)C(=O)N[C@@H](C)C(=O)N[C@H](C)C(=O)N(C)[C@@H](CC(C)C)C(=O)N(C)[C@@H](CC(C)C)C(=O)N(C)[C@@H](C(C)C)C(=O)N1C [Abu^2 Ser] | < 0.0 | 0.9 | 0.6 | 0.0 | 0.2
10 | C/C=C/C[C@@H](C)[C@@H](O)[C@H]1C(=O)N[C@@H](CC)C(=O)N(C)CC(=O)N(C)[C@@H](CC(C)C)C(=O)N[C@@H](CCSC)C(=O)N(C)[C@@H](CC(C)C)C(=O)N[C@@H](C)C(=O)N[C@H](C)C(=O)N(C)[C@@H](CC(C)C)C(=O)N(C)[C@@H](CC(C)C)C(=O)N(C)[C@@H](C(C)C)C(=O)N1C [Val^5 Met] | < 0.0 | 1.5 | < 0.0 | 0.0 | < 0.0
11 | C/C=C/C[C@@H](C)[C@@H](O)[C@H]1C(=O)N[C@@H](CC)C(=O)N(C)CC(=O)N(C)[C@@H](CC(C)C)C(=O)N[C@@H](C(C)C)C(=O)N(C)[C@@H](CC(C)C)C(=O)N[C@@H](C)C(=O)N[C@H]([C@H](C)O)C(=O)N(C)[C@@H](CC(C)C)C(=O)N(C)[C@@H](CC(C)C)C(=O)N(C)[C@@H](C(C)C)C(=O)N1C [D-Ala^8 D-Thr] | > 2.0 | 0.0 | < 0.0 | 0.4 | 1.2
